Earlier results on one molecule are cited in patent US4933274A, “Process for detecting genetic susceptibility to cancer” (United States of America Represented by the Secretary of …, priority 1988, dated 1990).

Data set [1] has as its system x-irradiated XP-A cells. To be noted: ara-C added to x-irradiated XP-A (xeroderma pigmentosum group A) cells.
Data set [2] relates to normal cells. The note with it: ara-C 50 μM added to normal cells following irradiation.

SMILES strings stand for the structures.

Take `Nc1ccn([C@@H]2O[C@H](CO)[C@@H](O)[C@@H]2O)c(=O)n1` [ara-C, β-cytosine arabinoside]: the chromatid damage result in data set [1] is reported as “no effect on chromatid damage”. The “frequency of chromatid damage” value in data set [2] is “enhances the frequency of chromatid damage to the level observed in the irradiated cancer-prone cells”.
